Results as given in the supplement of paper PMC11061612.

Legend:
Carboplatin = compound: C1CC(C1)(C(=O)[O-])C(=O)[O-].N.N.[Pt+2] [Carboplatin]; settings: max 10 µM
Procedure, shortened: (§1)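 In 1536-well plates, cancer cell lines in 7.5 μl DMEM/F12 or RPMI with 10% FBS spent 24 hours at 37°C and 5% CO2 and were then dosed for 72 hours with final DMSO typically 0.2%. Viability was read by CellTiter-Glo 2.0 luminescence and scaled between blank-well and DMSO-well means. The single-agent IC50 was fitted from dose responses using a logistic curve in a non-linear mixed effects model, and that logistic curve had two parameters.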

AZD5363 = compound: C1CN(CCC1(C(=O)N[C@@H](CCO)C2=CC=C(C=C2)Cl)N)C3=NC=NC4=C3C=CN4 [AZD5363]; settings: max 10 µM
Procedure, shortened: as §1

AZD1775 = compound: C=CCn1c(=O)c2cnc(Nc3ccc(N4CCN(C)CC4)cc3)nc2n1-c1cccc(C(C)(C)O)n1 [AZD1775]; settings: max 3 µM
Procedure, shortened: as §1

Trametinib = compound: CC(=O)Nc1cccc(-n2c(=O)n(C3CC3)c(=O)c3c(Nc4ccc(I)cc4F)n(C)c(=O)c(C)c32)c1 [Trametinib]; settings: max 1 µM
Procedure, shortened: as §1

Paclitaxel = compound: CC(=O)O[C@H]1C(=O)[C@@]2(C)[C@H]([C@H](OC(=O)c3ccccc3)[C@]3(O)C[C@H](OC(=O)[C@H](O)[C@@H](NC(=O)c4ccccc4)c4ccccc4)C(C)=C1C3(C)C)[C@]1(OC(C)=O)CO[C@@H]1C[C@@H]2O [Paclitaxel]; settings: max 3 µM
Procedure, shortened: as §1

Palbociclib = compound: CC(=O)c1c(C)c2cnc(Nc3ccc(N4CCNCC4)cn3)nc2n(C2CCCC2)c1=O [Palbociclib]; settings: max 10 µM
Procedure, shortened: as §1

AZD1390 = compound: CC(C)n1c(=O)n(C)c2cnc3cc(F)c(-c4ccc(OCCCN5CCCCC5)nc4)cc3c21 [AZD1390]; settings: max 0.3 µM
Procedure, shortened: as §1

Venetoclax = compound: CC1(C)CCC(CN2CCN(c3ccc(C(=O)NS(=O)(=O)c4ccc(NCC5CCOCC5)c([N+](=O)[O-])c4)c(Oc4cnc5[nH]ccc5c4)c3)CC2)=C(c2ccc(Cl)cc2)C1 [Venetoclax]; settings: max 1 µM
Procedure, shortened: as §1

Dasatinib = compound: CC1=C(C(=CC=C1)Cl)NC(=O)C2=CN=C(S2)NC3=CC(=NC(=N3)C)N4CCN(CC4)CCO [Dasatinib]; settings: max 2 µM
Procedure, shortened: as §1

SG3199 = compound: CC1=CN2[C@@H](C1)C=NC3=CC(=C(C=C3C2=O)OC)OCCCCCOC4=C(C=C5C(=C4)N=C[C@@H]6CC(=CN6C5=O)C)OC [SG3199]; settings: max 0.001 µM
Procedure, shortened: as §1

AZD2811 = compound: CCN(CCO)CCCOc1ccc2c(Nc3cc(CC(=O)Nc4cccc(F)c4)[nH]n3)ncnc2c1 [AZD2811]; settings: max 1 µM
Procedure, shortened: as §1

SN-38 = compound: CCc1c2c(nc3ccc(O)cc13)-c1cc3c(c(=O)n1C2)COC(=O)[C@]3(O)CC [SN-38]; settings: max 0.3 µM
Procedure, shortened: as §1

AZD0156 = compound: CN(C)CCCOc1ccc(-c2ccc3ncc4c(c3c2)n(C2CCOCC2)c(=O)n4C)cn1 [AZD0156]; settings: max 3 µM
Procedure, shortened: as §1

AZD4320 = compound: CN(CC[C@H](CSC1=CC=CC=C1)NC2=C(C=C(C=C2)S(=O)(=O)NC(=O)C3=CC=C(C=C3)N4CCC(CC4)[C@H](C5=CC=CC=C5C6=CC=C(C=C6)Cl)O)S(=O)(=O)C(F)(F)F)CCO [AZD4320]; settings: max 1 µM
Procedure, shortened: as §1

Alisertib = compound: COc1cc(Nc2ncc3c(n2)-c2ccc(Cl)cc2C(c2c(F)cccc2OC)=NC3)ccc1C(=O)O [Alisertib]; settings: max 10 µM
Procedure, shortened: as §1

Etoposide = compound: COc1cc([C@@H]2c3cc4c(cc3[C@@H](O[C@@H]3O[C@@H]5CO[C@@H](C)O[C@H]5[C@H](O)[C@H]3O)[C@H]3COC(=O)[C@H]23)OCO4)cc(OC)c1O [Etoposide]; settings: max 10 µM
Procedure, shortened: as §1

Gefitinib = compound: COc1cc2ncnc(Nc3ccc(F)c(Cl)c3)c2cc1OCCCN1CCOCC1 [Gefitinib]; settings: max 10 µM
Procedure, shortened: as §1

Prexasertib = compound: COc1cccc(OCCCN)c1-c1cc(Nc2cnc(C#N)cn2)n[nH]1 [Prexasertib]; settings: max 1 µM
Procedure, shortened: as §1

Doxorubicin = compound: COc1cccc2c1C(=O)c1c(O)c3c(c(O)c1C2=O)C[C@@](O)(C(=O)CO)C[C@@H]3O[C@H]1C[C@H](N)[C@H](O)[C@H](C)O1 [Doxorubicin]; settings: max 1 µM
Procedure, shortened: as §1

AZD5153 = compound: COc1nnc2ccc(N3CCC(c4ccc(OCCN5CCN(C)C(=O)[C@H]5C)cc4)CC3)nn12 [AZD5153]; settings: max 1 µM
Procedure, shortened: as §1

Lapatinib = compound: CS(=O)(=O)CCNCc1ccc(-c2ccc3ncnc(Nc4ccc(OCc5cccc(F)c5)c(Cl)c4)c3c2)o1 [Lapatinib]; settings: max 10 µM
Procedure, shortened: as §1

AZD8186 = compound: C[C@@H](Nc1cc(F)cc(F)c1)c1cc(C(=O)N(C)C)cc2c(=O)cc(N3CCOCC3)oc12 [AZD8186]; settings: max 10 µM
Procedure, shortened: as §1

Crizotinib = compound: C[C@@H](Oc1cc(-c2cnn(C3CCNCC3)c2)cnc1N)c1c(Cl)ccc(F)c1Cl [Crizotinib]; settings: max 10 µM
Procedure, shortened: as §1

Savolitinib = compound: C[C@@H](c1ccc2nccn2c1)n1nnc2ncc(-c3cnn(C)c3)nc21 [Savolitinib]; settings: max 1 µM
Procedure, shortened: as §1

AZD6738 = compound: C[C@@H]1COCCN1C2=NC(=NC(=C2)C3(CC3)[S@](=N)(=O)C)C4=C5C=CNC5=NC=C4 [AZD6738]; settings: max 10 µM
Procedure, shortened: as §1

AZD5991 = compound: Cc1c2c(nn1C)CSCc1cc(n(C)n1)CSc1cc(c3ccccc3c1)OCCCc1c(C(=O)O)n(C)c3c-2c(Cl)ccc13 [AZD5991]; settings: max 1 µM
Procedure, shortened: as §1

AZD7648 = compound: Cc1cc2ncnn2cc1Nc1ncc2c(n1)n(C1CCOCC1)c(=O)n2C [AZD7648]; settings: max 10 µM
Procedure, shortened: as §1

Taselisib = compound: Cc1nc(-c2cn3c(n2)-c2ccc(-c4cnn(C(C)(C)C(N)=O)c4)cc2OCC3)n(C(C)C)n1 [Taselisib]; settings: max 10 µM
Procedure, shortened: as §1

Selumetinib = compound: Cn1cnc2c(F)c(Nc3ccc(Br)cc3Cl)c(C(=O)NOCCO)cc21 [Selumetinib]; settings: max 10 µM
Procedure, shortened: as §1

SRA737 = compound: N#Cc1cnc(Nc2cc(NC[C@H]3CNCCO3)c(C(F)(F)F)cn2)cn1 [SRA737]; settings: max 10 µM
Procedure, shortened: as §1

MK-2206 = compound: NC1(c2ccc(-c3nc4ccn5c(=O)[nH]nc5c4cc3-c3ccccc3)cc2)CCC1 [MK-2206]; settings: max 10 µM
Procedure, shortened: as §1

Gemcitabine = compound: Nc1ccn([C@@H]2O[C@H](CO)[C@@H](O)C2(F)F)c(=O)n1 [Gemcitabine]; settings: max 0.3 µM
Procedure, shortened: as §1

[1] = compound: O=C(Nc1ccc2[nH]nc(-c3ccncc3)c2c1)[C@@H]1CCN(CC(=O)N2CCN(c3ccc(-c4ncccn4)cc3)CC2)C1; settings: max 5 µM
Procedure, shortened: as §1

Olaparib = compound: O=C(c1cc(Cc2n[nH]c(=O)c3ccccc23)ccc1F)N1CCN(C(=O)C2CC2)CC1 [Olaparib]; settings: max 10 µM
Procedure, shortened: as §1

5-Fluorouracil = compound: O=c1[nH]cc(F)c(=O)[nH]1 [5-Fluorouracil]; settings: max 20 µM
Procedure, shortened: as §1

Cell Line	IC50, cell viability 72 h (Carboplatin) [µM]	IC50, cell viability 72 h (AZD5363) [µM]	IC50, cell viability 72 h (AZD1775) [µM]	IC50, cell viability 72 h (Trametinib) [µM]	IC50, cell viability 72 h (Paclitaxel) [µM]	IC50, cell viability 72 h (Palbociclib) [µM]	IC50, cell viability 72 h (AZD1390) [µM]	IC50, cell viability 72 h (Venetoclax) [µM]	IC50, cell viability 72 h (Dasatinib) [µM]	IC50, cell viability 72 h (SG3199) [µM]	IC50, cell viability 72 h (AZD2811) [µM]	IC50, cell viability 72 h (SN-38) [µM]	IC50, cell viability 72 h (AZD0156) [µM]	IC50, cell viability 72 h (AZD4320) [µM]	IC50, cell viability 72 h (Alisertib) [µM]	IC50, cell viability 72 h (Etoposide) [µM]	IC50, cell viability 72 h (Gefitinib) [µM]	IC50, cell viability 72 h (Prexasertib) [µM]	IC50, cell viability 72 h (Doxorubicin) [µM]	IC50, cell viability 72 h (AZD5153) [µM]	IC50, cell viability 72 h (Lapatinib) [µM]	IC50, cell viability 72 h (AZD8186) [µM]	IC50, cell viability 72 h (Crizotinib) [µM]	IC50, cell viability 72 h (Savolitinib) [µM]	IC50, cell viability 72 h (AZD6738) [µM]	IC50, cell viability 72 h (AZD5991) [µM]	IC50, cell viability 72 h (AZD7648) [µM]	IC50, cell viability 72 h (Taselisib) [µM]	IC50, cell viability 72 h (Selumetinib) [µM]	IC50, cell viability 72 h (SRA737) [µM]	IC50, cell viability 72 h (MK-2206) [µM]	IC50, cell viability 72 h (Gemcitabine) [µM]	IC50, cell viability 72 h [1] [µM]	IC50, cell viability 72 h (Olaparib) [µM]	IC50, cell viability 72 h (5-Fluorouracil) [µM]
NCI-H3118 (Head and Neck Carcinoma)	> 10	> 10	0.191	0.12	0.015	> 10	> 0.3	> 1	0.309	> 0.001	> 1	0.277	> 3	> 1	> 10	5.67	1.97	0.0393	> 1	0.684	4.49	> 10	> 10	> 1	> 10	> 1	> 10	1.06	3.09	> 10	> 10	0.0641	0.912	> 10	> 20
RCC-JW (Kidney Carcinoma)	> 10	> 10	1.6	> 1	0.109	> 10	> 0.3	> 1	0.0851	> 0.001	> 1	0.157	> 3	0.895	> 10	> 10	> 10	> 1	> 1	> 1	7.53	5.13	> 10	> 1	> 10	> 1	> 10	> 10	> 10	> 10	> 10	0.0617	> 5	> 10	> 20
SCC-4 (Oral Cavity Carcinoma)	> 10	> 10	> 3	> 1	0.0115	> 10	> 0.3	> 1	> 2	> 0.001	> 1	0.053	> 3	> 1	9.22	> 10	> 10	0.154	> 1	> 1	> 10	> 10	> 10	> 1	9.01	> 1	> 10	1.94	> 10	> 10	> 10	0.272	> 5	> 10	> 20
SK-CO-1 (Colorectal Carcinoma)	> 10	> 10	1.24	0.00527	0.00407	> 10	> 0.3	> 1	> 2	> 0.001	0.383	0.0059	> 3	0.7	3.13	2.14	> 10	0.248	0.185	> 1	> 10	9.81	1.8	> 1	6.58	> 1	> 10	1.22	1.12	> 10	> 10	0.00948	0.0856	> 10	> 20
SK-N-SH (Neuroblastoma)	> 10	> 10	1.44	> 1	0.0774	> 10	> 0.3	> 1	> 2	> 0.001	> 1	0.00292	> 3	0.794	0.0593	0.667	> 10	0.0265	0.0669	> 1	> 10	> 10	2.41	> 1	2.26	> 1	> 10	1.52	> 10	> 10	> 10	0.0585	> 5	> 10	> 20
SKG-IIIa (Cervical Carcinoma)	> 10	> 10	> 3	> 1	0.854	> 10	> 0.3	> 1	> 2	> 0.001	> 1	> 0.3	> 3	> 1	> 10	> 10	> 10	> 1	> 1	> 1	> 10	> 10	> 10	> 1	> 10	> 1	> 10	> 10	> 10	> 10	> 10	> 0.3	> 5	> 10	> 20
SNU-423 (Hepatocellular Carcinoma)	> 10	> 10	2.15	> 1	0.124	> 10	> 0.3	> 1	> 2	> 0.001	> 1	> 0.3	> 3	> 1	> 10	> 10	> 10	0.166	> 1	> 1	> 10	> 10	> 10	> 1	> 10	> 1	> 10	> 10	> 10	> 10	> 10	> 0.3	> 5	> 10	> 20
T84 (Colorectal Carcinoma)	> 10	> 10	1.31	0.804	0.548	> 10	> 0.3	> 1	> 2	> 0.001	> 1	0.131	> 3	> 1	> 10	> 10	> 10	0.0897	> 1	> 1	> 10	> 10	> 10	> 1	6.78	> 1	> 10	4.66	> 10	4.61	> 10	0.276	> 5	> 10	> 20
ZR-75-30 (Breast Carcinoma)	> 10	> 10	> 3	> 1	> 3	> 10	> 0.3	> 1	> 2	> 0.001	> 1	> 0.3	> 3	> 1	> 10	> 10	> 10	> 1	> 1	> 1	0.869	> 10	> 10	> 1	> 10	> 1	> 10	9.52	> 10	> 10	> 10	> 0.3	> 5	> 10	> 20
